Source: ChEMBL document CHEMBL4390680, “In silico study of M18 aspartyl amino peptidase (M18AAP) of Plasmodium vivax as an antimalarial drug target” (Bioorg Med Chem, 2019)

Assay: Inhibition of Plasmodium vivax aminopeptidase-M18

| SMILES | pIC50 |
| --- | --- |
| COc1ccc(CCNC2CCN(Cc3ccccc3)CC2)cc1OC | 5.161 |
| COc1ccc(CCNc2c3ccccc3nc3ccccc23)cc1OC | 5.61 |
| Oc1ccc(CCNc2ccnc3ccccc23)cc1O | 5.409 |
| COc1ccc(CCN(C)c2c3ccccc3nc3ccccc23)cc1OC | 5.347 |
| Oc1ccc(CCNc2c3c(nc4ccccc24)CCCC3)cc1O | 5.443 |
| COc1ccc(CCN(C)c2ccnc3cc(Cl)ccc23)cc1OC | 5.24 |
| COc1ccc(C2CCN(c3ccnc4ccccc34)C2)cc1OC (stereo unspecified) | 5.699 |
| Oc1cccc(CCNc2ccnc3ccccc23)c1O | 5.569 |
| CCOc1ccc2nccc(NCCc3ccc(OC)c(OC)c3)c2c1 | 5.854 |
| O=c1ccn(CCNc2c3ccccc3nc3ccccc23)cc1OCc1ccccc1 | 5.328 |
| Oc1ccc(CCN2CCc3ccccc3C2)cc1O | 5.102 |
| COc1ccc(CCNc2c3ccccc3nc3ccccc23)cc1 | 5.959 |
| Cc1c(OCc2ccccc2)c(=O)ccn1CCNc1c2ccccc2nc2ccccc12 | 5.398 |
| Oc1ccc(C2CCN(c3ccnc4ccccc34)C2)cc1O (stereo unspecified) | 6.031 |
| Cc1cccc2c(NCCc3ccc(O)c(O)c3)ccnc12 | 5.328 |
| Oc1ccc(CCNc2ccnc3cc(Cl)ccc23)cc1O | 6.208 |

| SMILES | pIC50 |
| --- | --- |
| COc1ccc(CNc2c3ccccc3nc3ccccc23)cc1OC | 5.979 |
| COc1cccc(CCNc2c3ccccc3nc3ccccc23)c1 | 6.221 |
| Oc1ccc(C2CCN(c3ccnc4ccccc34)CC2)cc1O | 5.887 |
| Oc1ccc(C2CCCN(c3ccnc4ccccc34)C2)cc1O (stereo unspecified) | 5.377 |
| Oc1ccc(CCNc2c3ccccc3nc3ccccc23)cc1 | 6.155 |
| Oc1ccc(CCCNc2c3ccccc3nc3ccccc23)cc1O | 5.432 |
| COc1ccc(CCCNc2c3ccccc3nc3ccccc23)cc1OC | 5.658 |
| COc1ccc(CCNc2cncc3ccccc23)cc1OC | 5.347 |
| CN(CCc1ccc(O)c(O)c1)c1ccnc2ccccc12 | 5.319 |
| NCCNc1c2ccccc2nc2ccccc12 | 6.301 |
| Oc1ccc(CCNC2CCN(Cc3ccccc3)CC2)cc1O | 5.187 |
| COc1cc(Br)c(CCNc2c3ccccc3nc3ccccc23)cc1OC | 6.522 |
| COc1cc(Br)c(CCNc2ccnc3ccccc23)cc1OC | 6.347 |
| COc1cc(Br)c(CCNc2c3c(nc4ccccc24)CCCC3)cc1OC | 5.522 |
| COc1ccc(CCNc2ccnc3cc(Cl)ccc23)cc1OC | 6.18 |
